ChEMBL document CHEMBL4507292 (2021)
pIC50, pKi: −log10 of the molar value.

Assays:
[1] = biological target: T1, Cysteinyl leukotriene receptor 1 (Homo sapiens) (UniProt Q9Y271); assay: (§1) Inhibition of Leukotriene, Cysteinyl CysLT1 at 10 µM in the Eurofins-Panlabs radioligand binding assay (Eurofins_assay_250460); parameters: ligand concentration 0.3 nM, non-specific ligand with concentration 0.3 µM Leukotriene D4, incubation time 30 min, incubation temperature 25 °C
T1 sequence (whole entry): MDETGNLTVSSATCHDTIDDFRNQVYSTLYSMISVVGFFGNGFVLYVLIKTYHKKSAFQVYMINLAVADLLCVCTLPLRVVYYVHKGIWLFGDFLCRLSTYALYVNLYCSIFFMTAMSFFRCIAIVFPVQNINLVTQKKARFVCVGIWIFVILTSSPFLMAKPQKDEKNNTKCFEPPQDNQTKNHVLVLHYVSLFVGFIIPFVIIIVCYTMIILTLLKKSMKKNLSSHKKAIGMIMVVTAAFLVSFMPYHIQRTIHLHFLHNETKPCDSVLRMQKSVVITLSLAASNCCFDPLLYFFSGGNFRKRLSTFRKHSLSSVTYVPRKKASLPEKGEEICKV

[2] = biological target: Cysteinyl leukotriene receptor 1 (Homo sapiens, UniProt Q9Y271); assay: as §1; parameters: ligand concentration 0.3 nM, non-specific ligand with concentration 0.3 µM Leukotriene D4, incubation time 30 min, incubation temperature 25 °C
[3] = biological target: Kappa-type opioid receptor (Homo sapiens, UniProt P41145); assay: Inhibition of Opiate kappa (OP2, KOP) at compound concentration of 10.0 uM in the Eurofins-Panlabs radioligand binding assay (Eurofins_assay_260210); parameters: ligand concentration 0.6 nM, non-specific ligand with concentration 10 uM Naloxone, incubation time 60 min, incubation temperature 25 C
Oryctolagus cuniculus = species: Oryctolagus cuniculus; assay: Inhibition of Purinergic P2X at 10 µM in the Eurofins-Panlabs radioligand binding assay (Eurofins_assay_268700); assay type: protein assay; conditions: Compound concentration 10.0 uM
[4] = biological target: 5-hydroxytryptamine receptor 1A (Homo sapiens, UniProt P08908); assay: Inhibition of Serotonin (5-Hydroxytryptamine) 5-HT1A at compound concentration of 10.0 uM in the Eurofins-Panlabs radioligand binding assay (Eurofins_assay_271110); parameters: ligand concentration 1.5 nM, non-specific ligand with concentration 10 uM Metergoline, incubation time 60 min, incubation temperature 25 C
[5] = Inhibition of Atrial Natriuretic Factor (ANF) at 10 µM in the Eurofins-Panlabs radioligand binding assay (Eurofins_assay_211000); conditions: Cavia porcellus
[6] = biological target: Melanocortin receptor 5 (Homo sapiens) (UniProt P33032); assay: Inhibition of Melanocortin MC5 at 10 µM in the Eurofins-Panlabs radioligand binding assay (Eurofins_assay_251400); parameters: ligand concentration 0.035 nM; conditions: Compound concentration 10.0 uM
[7] = biological target: Tyrosine 3-monooxygenase (Homo sapiens) (UniProt P07101); assay: Tyrosine Hydroxylase Eurofins-Panlabs enzyme assay; parameters: substrate with concentration; conditions: Rattus norvegicus; Compound concentration 10.0 uM
[8] = biological target: Histamine H4 receptor (Homo sapiens) (UniProt Q9H3N8); assay: Histamine H4 Eurofins-Panlabs radioligand binding assay; conditions: Compound concentration 10.0 uM
[9] = biological target: Protein kinase C alpha type (Homo sapiens) (UniProt P17252); assay: Inhibition of Protein Serine/Threonine Kinase, PRKCA (PKCα) at 10 µM in the Eurofins-Panlabs enzyme assay (Eurofins_assay_180010); parameters: substrate with concentration Histone, incubation time 10 min, incubation temperature 25 °C; conditions: Compound concentration […]
[10] = biological target: Vascular endothelial growth factor receptor 1 (Homo sapiens) (UniProt P17948); assay: Protein Tyrosine Kinase, FLT1 (VEGFR-1) Eurofins-Panlabs enzyme assay; conditions: Compound concentration 10.0 uM
[11] = biological target: C-C chemokine receptor type 1 (Homo sapiens) (UniProt P32246); assay: Chemokine CCR1 Eurofins-Panlabs radioligand binding assay; conditions: Compound concentration 10.0 uM
Homo sapiens [12] = species: Homo sapiens; assay: Estrogen ERbeta Eurofins-Panlabs radioligand binding assay; conditions: Compound concentration 10.0 uM
[13] = biological target: Glutamate NMDA receptor; GRIN1/GRIN2A (Homo sapiens) (UniProt Q05586+Q12879); assay: NMDA-NR1a/NR2a Eurofins-Panlabs radioligand binding assay; assay type: protein-complex assay; conditions: Compound concentration 10.0 uM
[14] = biological target: Prostaglandin E2 receptor EP1 subtype (Homo sapiens) (UniProt P34995); assay: Prostanoid EP1 Eurofins-Panlabs radioligand binding assay; conditions: Compound concentration 10.0 uM
[15] = biological target: Prostaglandin E2 receptor EP4 subtype (Homo sapiens) (UniProt P35408); assay: Prostanoid EP4 Eurofins-Panlabs radioligand binding assay; parameters: ligand concentration 0.5 nM; conditions: Compound concentration 10.0 uM
[16] = biological target: Prostaglandin F2-alpha receptor (Homo sapiens) (UniProt P43088); assay: Prostanoid FP Eurofins-Panlabs radioligand binding assay; parameters: ligand concentration 0.95 nM; conditions: Compound concentration 10.0 uM
[17] = biological target: Prostacyclin receptor (Homo sapiens) (UniProt P43119); assay: Prostanoid IP Eurofins-Panlabs radioligand binding assay; parameters: ligand concentration 5 nM; conditions: Compound concentration 10.0 uM
[18] = (§2) Prostanoid, Thromboxane A2 (TP) Eurofins-Panlabs radioligand binding assay; parameters: species or system Homo sapiens; ligand concentration 5 nM, non-specific ligand with concentration 1 µM SQ-29548, incubation time 30 min, incubation temperature 25 °C
Homo sapiens [19] = species: Homo sapiens; assay: as §2; parameters: ligand concentration 5 nM, non-specific ligand with concentration 1 µM SQ-29548, incubation time 30 min, incubation temperature 25 °C
Rattus norvegicus = species: Rattus norvegicus; assay: Serotonin (5-Hydroxytryptamine) 5-HT2, Non-Selective Eurofins-Panlabs radioligand binding assay; assay type: protein assay; conditions: Compound concentration 10.0 uM
[20] = biological target: Neuromedin-K receptor (Homo sapiens) (UniProt P29371); assay: Tachykinin NK3 Eurofins-Panlabs radioligand binding assay; parameters: ligand concentration 0.8 nM; conditions: Compound concentration 10.0 uM
D(1A) dopamine receptor = D(1A) dopamine receptor (Homo sapiens, UniProt P21728); conditions: Compound concentration 10.0 uM
[21] = biological target: D(3) dopamine receptor (Homo sapiens) (UniProt P35462)
[22] = biological target: Glutamate NMDA receptor (Rattus norvegicus) (UniProt P35439+Q00959+Q00960+Q00961+Q62645+Q8VHN2+Q9R1M7); conditions: Compound concentration 10.0 uM
[23] = biological target: cGMP-specific 3',5'-cyclic phosphodiesterase (Homo sapiens, UniProt O76074)
[24] = biological target: T2, Alpha-2B adrenergic receptor (Homo sapiens) (UniProt P18089); conditions: Compound concentration 10.0 uM
T2 sequence (whole entry): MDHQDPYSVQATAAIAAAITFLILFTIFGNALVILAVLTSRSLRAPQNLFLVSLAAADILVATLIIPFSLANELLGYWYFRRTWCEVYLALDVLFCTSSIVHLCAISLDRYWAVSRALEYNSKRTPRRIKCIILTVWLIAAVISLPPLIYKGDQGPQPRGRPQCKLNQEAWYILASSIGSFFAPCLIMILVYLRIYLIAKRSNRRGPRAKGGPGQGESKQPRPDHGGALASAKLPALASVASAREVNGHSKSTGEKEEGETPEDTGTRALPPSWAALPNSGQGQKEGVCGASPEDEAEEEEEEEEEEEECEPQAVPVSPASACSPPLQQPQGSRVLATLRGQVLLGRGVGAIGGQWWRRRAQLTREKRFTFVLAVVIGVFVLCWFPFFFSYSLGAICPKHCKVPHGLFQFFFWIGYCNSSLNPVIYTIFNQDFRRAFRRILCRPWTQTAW

[25] = biological target: Beta-3 adrenergic receptor (Homo sapiens, UniProt P13945)
Insulin receptor = Insulin receptor (Homo sapiens, UniProt P06213); conditions: Rattus norvegicus; Compound concentration 10.0 uM

Chain of D(3) dopamine receptor (Homo sapiens) (P35462 whole entry): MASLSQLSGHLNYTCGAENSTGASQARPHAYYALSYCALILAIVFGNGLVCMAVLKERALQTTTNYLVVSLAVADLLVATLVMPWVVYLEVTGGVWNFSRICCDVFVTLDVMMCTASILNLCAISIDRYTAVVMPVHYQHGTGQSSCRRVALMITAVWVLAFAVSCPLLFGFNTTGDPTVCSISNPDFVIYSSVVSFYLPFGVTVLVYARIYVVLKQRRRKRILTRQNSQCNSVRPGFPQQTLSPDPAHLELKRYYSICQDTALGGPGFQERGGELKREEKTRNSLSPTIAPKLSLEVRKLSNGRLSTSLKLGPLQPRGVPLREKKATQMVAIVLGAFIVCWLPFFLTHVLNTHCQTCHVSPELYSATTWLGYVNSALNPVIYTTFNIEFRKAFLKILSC
Chain of Beta-3 adrenergic receptor (P13945 whole entry, looked up): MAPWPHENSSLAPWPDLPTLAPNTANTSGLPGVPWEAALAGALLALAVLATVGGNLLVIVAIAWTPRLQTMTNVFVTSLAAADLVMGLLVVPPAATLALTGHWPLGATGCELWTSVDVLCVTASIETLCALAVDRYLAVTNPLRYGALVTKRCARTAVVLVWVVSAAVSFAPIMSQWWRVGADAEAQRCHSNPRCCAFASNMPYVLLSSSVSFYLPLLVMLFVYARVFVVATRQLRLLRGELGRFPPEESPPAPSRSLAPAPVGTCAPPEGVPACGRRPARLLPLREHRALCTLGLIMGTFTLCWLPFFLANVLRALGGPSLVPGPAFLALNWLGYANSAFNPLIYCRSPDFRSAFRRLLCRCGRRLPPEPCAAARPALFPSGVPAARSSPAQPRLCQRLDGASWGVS
Chain of 5-hydroxytryptamine receptor 1A (P08908 whole entry): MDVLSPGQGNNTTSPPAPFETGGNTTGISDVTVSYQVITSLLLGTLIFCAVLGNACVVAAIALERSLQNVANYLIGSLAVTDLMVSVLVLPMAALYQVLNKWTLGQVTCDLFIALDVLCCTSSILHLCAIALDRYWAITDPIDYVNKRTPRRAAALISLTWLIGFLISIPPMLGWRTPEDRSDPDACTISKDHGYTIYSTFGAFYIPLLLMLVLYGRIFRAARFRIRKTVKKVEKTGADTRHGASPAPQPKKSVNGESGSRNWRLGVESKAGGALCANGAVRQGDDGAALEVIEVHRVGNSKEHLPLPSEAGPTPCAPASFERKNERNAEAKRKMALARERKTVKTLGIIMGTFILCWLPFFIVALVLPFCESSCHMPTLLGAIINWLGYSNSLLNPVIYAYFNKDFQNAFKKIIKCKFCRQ
Chain of Kappa-type opioid receptor (P41145 whole entry): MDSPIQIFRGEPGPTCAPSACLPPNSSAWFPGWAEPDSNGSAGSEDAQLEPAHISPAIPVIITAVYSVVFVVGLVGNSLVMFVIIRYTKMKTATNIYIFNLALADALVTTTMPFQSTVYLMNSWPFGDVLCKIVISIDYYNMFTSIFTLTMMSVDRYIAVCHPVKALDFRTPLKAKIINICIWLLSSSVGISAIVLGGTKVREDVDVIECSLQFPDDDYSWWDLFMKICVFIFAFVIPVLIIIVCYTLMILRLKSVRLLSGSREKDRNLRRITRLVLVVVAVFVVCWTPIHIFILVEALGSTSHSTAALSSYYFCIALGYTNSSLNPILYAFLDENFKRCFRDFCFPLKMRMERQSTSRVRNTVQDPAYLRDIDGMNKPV
Chain of Histamine H4 receptor (Homo sapiens) (Q9H3N8 whole entry): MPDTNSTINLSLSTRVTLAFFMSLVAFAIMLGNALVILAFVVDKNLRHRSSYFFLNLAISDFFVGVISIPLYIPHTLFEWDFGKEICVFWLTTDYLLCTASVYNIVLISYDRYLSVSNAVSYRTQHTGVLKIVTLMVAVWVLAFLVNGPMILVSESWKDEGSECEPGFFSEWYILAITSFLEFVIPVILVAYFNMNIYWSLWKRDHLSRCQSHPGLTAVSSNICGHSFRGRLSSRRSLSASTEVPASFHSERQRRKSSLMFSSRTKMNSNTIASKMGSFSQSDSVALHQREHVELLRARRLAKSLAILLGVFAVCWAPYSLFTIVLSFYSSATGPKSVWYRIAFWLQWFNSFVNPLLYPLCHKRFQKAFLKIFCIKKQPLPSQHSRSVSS
Chain of Vascular endothelial growth factor receptor 1 (Homo sapiens) (P17948 whole entry): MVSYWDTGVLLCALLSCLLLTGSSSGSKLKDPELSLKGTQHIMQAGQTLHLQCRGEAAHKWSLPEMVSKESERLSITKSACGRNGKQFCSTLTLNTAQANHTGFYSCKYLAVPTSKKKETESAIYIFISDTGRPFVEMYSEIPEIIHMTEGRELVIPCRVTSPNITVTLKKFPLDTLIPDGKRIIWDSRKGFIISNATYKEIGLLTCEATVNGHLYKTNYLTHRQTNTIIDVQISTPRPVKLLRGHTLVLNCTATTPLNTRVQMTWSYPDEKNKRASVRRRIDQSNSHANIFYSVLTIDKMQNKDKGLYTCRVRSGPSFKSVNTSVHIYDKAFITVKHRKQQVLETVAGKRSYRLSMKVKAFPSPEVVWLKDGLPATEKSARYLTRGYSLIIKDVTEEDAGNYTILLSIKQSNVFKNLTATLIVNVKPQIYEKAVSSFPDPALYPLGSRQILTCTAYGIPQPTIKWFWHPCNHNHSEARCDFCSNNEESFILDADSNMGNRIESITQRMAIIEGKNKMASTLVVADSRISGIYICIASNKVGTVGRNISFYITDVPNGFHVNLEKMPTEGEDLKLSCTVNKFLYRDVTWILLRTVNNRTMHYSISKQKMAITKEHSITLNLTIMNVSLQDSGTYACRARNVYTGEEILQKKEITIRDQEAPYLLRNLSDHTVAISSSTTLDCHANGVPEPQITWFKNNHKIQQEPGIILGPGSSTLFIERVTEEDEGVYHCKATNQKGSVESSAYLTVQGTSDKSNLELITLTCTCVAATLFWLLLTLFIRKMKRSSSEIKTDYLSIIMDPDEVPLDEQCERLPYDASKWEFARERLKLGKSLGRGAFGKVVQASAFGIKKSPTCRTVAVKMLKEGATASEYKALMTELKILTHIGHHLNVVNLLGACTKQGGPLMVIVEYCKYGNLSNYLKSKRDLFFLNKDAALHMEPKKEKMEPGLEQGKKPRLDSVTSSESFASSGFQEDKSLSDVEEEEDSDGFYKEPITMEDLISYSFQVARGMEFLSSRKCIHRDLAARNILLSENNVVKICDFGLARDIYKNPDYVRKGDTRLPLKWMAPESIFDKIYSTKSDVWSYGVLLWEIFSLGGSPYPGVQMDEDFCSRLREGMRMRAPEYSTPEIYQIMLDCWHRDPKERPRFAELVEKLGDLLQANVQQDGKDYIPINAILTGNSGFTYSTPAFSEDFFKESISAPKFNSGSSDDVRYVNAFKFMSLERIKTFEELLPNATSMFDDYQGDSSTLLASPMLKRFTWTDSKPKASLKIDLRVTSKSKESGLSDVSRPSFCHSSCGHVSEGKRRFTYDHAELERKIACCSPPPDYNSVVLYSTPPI
Chain of Tyrosine 3-monooxygenase (Homo sapiens) (P07101 whole entry): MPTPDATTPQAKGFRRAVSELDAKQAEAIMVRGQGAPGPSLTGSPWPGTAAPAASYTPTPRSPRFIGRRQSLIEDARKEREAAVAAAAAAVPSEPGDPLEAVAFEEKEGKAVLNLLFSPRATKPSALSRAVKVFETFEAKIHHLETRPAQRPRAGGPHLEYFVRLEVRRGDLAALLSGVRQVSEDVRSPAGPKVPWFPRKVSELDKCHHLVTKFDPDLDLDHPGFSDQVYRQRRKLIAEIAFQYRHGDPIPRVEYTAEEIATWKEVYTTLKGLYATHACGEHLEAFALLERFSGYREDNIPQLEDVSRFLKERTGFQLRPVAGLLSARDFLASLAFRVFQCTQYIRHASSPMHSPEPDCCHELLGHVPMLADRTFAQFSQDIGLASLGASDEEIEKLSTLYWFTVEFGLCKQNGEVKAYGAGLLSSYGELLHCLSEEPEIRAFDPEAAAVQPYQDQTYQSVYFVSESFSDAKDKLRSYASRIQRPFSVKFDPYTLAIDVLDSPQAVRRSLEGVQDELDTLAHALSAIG
Chain of Melanocortin receptor 5 (Homo sapiens) (P33032 whole entry): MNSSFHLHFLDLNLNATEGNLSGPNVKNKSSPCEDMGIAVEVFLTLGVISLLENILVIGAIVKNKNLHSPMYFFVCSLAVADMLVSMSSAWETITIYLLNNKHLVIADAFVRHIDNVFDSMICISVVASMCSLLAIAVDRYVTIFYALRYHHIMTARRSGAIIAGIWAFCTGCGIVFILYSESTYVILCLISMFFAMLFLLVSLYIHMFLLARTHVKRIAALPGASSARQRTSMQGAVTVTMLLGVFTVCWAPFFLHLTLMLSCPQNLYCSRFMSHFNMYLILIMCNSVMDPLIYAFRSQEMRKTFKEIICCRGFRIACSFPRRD

O=C(O)c1cc(-c2ccc(C3CCNCC3)cc2)c2ccc(-c3ccc(C(F)(F)F)cc3)cc2c1 [PPTN]
5.40: pKi [4]
5.10: pIC50 [3]
6.25: pIC50 [2]
5.21: pKi [18]
5.15: pIC50 [4]
5.02: pIC50 [18]
5.49: pKi [3]
active: inhibition ([1]; Compound concentration 1.0 uM) 65% | inhibition ([1]; Compound concentration 10.0 uM) 97% | inhibition (Homo sapiens [19]; Compound concentration 10.0 uM) 51% | inhibition ([21]; Compound concentration 10.0 uM) 56% | inhibition ([23]; Compound concentration 100.0 uM) 72% | inhibition ([25]; Compound concentration 10.0 uM) 53%
6.64: pKi [2]
inactive: inhibition ([1]; Compound concentration 0.01 uM) 0% | inhibition ([1]; Compound concentration 0.1 uM) 13% | inhibition (Oryctolagus cuniculus) 14% | inhibition [6] 41% | inhibition [7] -3% | inhibition [8] 15% | inhibition [9] 29% | inhibition [10] -2% | inhibition [11] -9% | inhibition (Homo sapiens [12]) 1% | inhibition [13] 12% | inhibition [14] 4% | inhibition [15] 37% | inhibition [16] 15% | inhibition [17] -3% | inhibition (Homo sapiens [19]; Compound concentration 0.01 uM) 14% | inhibition (Homo sapiens [19]; Compound concentration 0.1 uM) -5% | inhibition (Homo sapiens [19]; Compound concentration 1.0 uM) 9% | inhibition (Rattus norvegicus) 0% | inhibition [20] 29% | inhibition (D(1A) dopamine receptor) 22% | inhibition ([21]; Compound concentration 0.01 uM) 3% | inhibition ([21]; Compound concentration 0.1 uM) 1% | inhibition ([21]; Compound concentration 1.0 uM) 12% | inhibition [22] 1% | inhibition ([23]; Compound concentration 0.1 uM) -3% | inhibition ([23]; Compound concentration 1.0 uM) -8% | inhibition ([23]; Compound concentration 10.0 uM) 22% | inhibition [24] -1% | inhibition ([25]; Compound concentration 0.01 uM) -2% | inhibition ([25]; Compound concentration 0.1 uM) -8% | inhibition ([25]; Compound concentration 1.0 uM) 0% | inhibition (Insulin receptor) -8%
-1% (not active): inhibition at 10 µM [5]
